Like-named read-outs stand apart in the source and are kept apart here.
How the values were obtained:
[1] = test system: Aβ42 production; assay: Inhibition of Aβ42 production in H4 neuroglioma cells stably expressing human APP695 (MSD electrochemiluminescence); assay type: cell-based
Method: (§1) Cells were plated out to near confluency. The compounds to be tested were received as 10 mM stocks in 100% DMSO. A dilution series was initially generated in 100% DMSO and then diluted 200-fold in cell culture media such that the tested concentration range was 30 μM to 0.1 nM and the final DMSO concentration was 0.5%. The diluted compounds were incubated with the cells for 22 hours in an incubator at 37° C. and 5% CO2. Aβ42 levels were measured post-incubation from the supernatant of the cells using an Aβ42 specific electrochemiluminescence assay provided by Meso Scale Discovery (Catalog #L21CA-1). The measurement of Aβ42 levels were performed according to the manufacturer's protocol.

[2] = test system: Aβ total; assay: Aβ total levels in H4 neuroglioma cells stably expressing human APP695 (MSD electrochemiluminescence); assay type: cell-based; details: selectivity ratio vs. Aβtotal
Method: as §1
Aβ total levels were likewise determined using a specific electrochemiluminescence assay provided by Meso Scale Discovery (Catalog #L21ZA-1) according to the manufacturer's protocol.

[3] = target: LYN B (Homo sapiens, UniProt P07948); assay: Z'-LYTE SelectScreen biochemical kinase assay LYN B
Description: (§2) Thermo Fisher Scientific SelectScreen™ Biochemical Kinase Profiling Service Z′-LYTE™ Screening Protocol and Assay Conditions Assay Theory
(§3) The […] biochemical assay employs a fluorescence-based, coupled-enzyme format and is based on the differential sensitivity of phosphorylated and non-phosphorylated peptides to proteolytic cleavage. The peptide substrate is labeled with two fluorophores—one at each end—that make up a FRET pair. In the primary reaction, the kinase transfers the gamma-phosphate of ATP to a single tyrosine, serine or threonine residue in a synthetic FRET-peptide. In the secondary reaction, a site-specific protease recognizes and cleaves non-phosphorylated FRET-peptides. Phosphorylation of FRET-peptides suppresses cleavage by the Development Reagent. Cleavage disrupts FRET between the donor (i.e., coumarin) and acceptor (i.e., fluorescein) fluorophores on the FRET-peptide, whereas uncleaved, phosphorylated FRET-peptides maintain FRET. A ratiometric method, which calculates the ratio (Emission Ratio=Coumarin emission (445 nm)/Fluorescein emission (520 nm)) of donor emission to acceptor emission after excitation of the donor fluorophore at 400 nm, is used to quantitate reaction progress, as shown in the equation below. A significant benefit of this ratiometric method for quantitating reaction progress is the elimination of well-to-well variations in FRET-peptide concentration and signal intensities. As a result, the assay yields very high Z′-factor values (>0.7) at a low percent phosphorylation. Both cleaved and uncleaved FRET-peptides contribute to the fluorescence signals and therefore to the Emission Ratio. The extent of phosphorylation of the FRET-peptide can be calculated from the Emission Ratio. The Emission Ratio will remain low if the FRET-peptide is phosphorylated (i.e., no kinase inhibition) and will be high if the FRET-peptide is non-phosphorylated (i.e., kinase inhibition).
(§4) The Test Compounds are screened in 1% DMSO (final) in the well. For 10 point titrations, 3-fold serial dilutions are conducted from the starting concentration of the customer's choosing.
(§5) All Peptide/Kinase Mixtures are diluted to a 2× working concentration in the appropriate Kinase Buffer (see section Kinase Specific Assay Conditions for a complete description).
(§6) All ATP Solutions are diluted to a 4× working concentration in Kinase Buffer (50 mM HEPES pH 7.5, 0.01% BRIJ-35, 10 mM MgCl2, 1 mM EGTA). ATP Km apparent is previously determined using a Z″-LYTE assay.
(§7) The Development Reagent is diluted in Development Buffer (see section Kinase-Specific Assay Conditions—Direct and Cascade for a complete description).
(§8) Bar-coded Corning, low volume NBS, black 384-well plate (Corning Cat. #4514) • 1. 100 nL—100× Test Compound in 100% DMSO • 2. 2.4 μL—Kinase buffer • 3. 5 μL—2× Peptide/Kinase Mixture • 4. 2.5 μL—4×ATP Solution • 5. 30—second plate shake • 6. 60—minute Kinase Reaction incubation at room temperature • 7. 5 μL—Development Reagent Solution • 8. 30—second plate shake • 9. 60—minute Development Reaction incubation at room temperature • 10. Read on fluorescence plate reader and analyze the data Z′-LYTE Assay Controls
(§9) SelectScreen Kinase Profiling Service uses XLfit from IDBS. The dose response curve is curve fit to model number 205 (sigmoidal dose-response model).
(§10) The 2×LYN B/Tyr 02 mixture is prepared in 50 mM HEPES pH 7.5, 0.01% BRIJ-35, 10 mM MgCl2, 1 mM EGTA. The final 10 μL Kinase Reaction consists of 0.85-14.8 ng LYN B and 2 μM Tyr 02 in 50 mM HEPES pH 7.5, 0.01% BRIJ-35, 10 mM MgCl2, 1 mM EGTA. After the 1 hour Kinase Reaction incubation, 5 μL of a 1:128 dilution of Development Reagent A is added.

[4] = target: MAP4K4 (HGK) (Homo sapiens, UniProt O95819); assay: Z'-LYTE SelectScreen biochemical kinase assay MAP4K4 (HGK)
Description: as §2, §3, §4, §5, §6, §7, §8, §9
as §10, with “2×MAP4K4 (HGK)/Ser/Thr 07” for “2×LYN B/Tyr 02”, “0.36-1.82” for “0.85-14.8”, “MAP4K4 (HGK)” for “LYN B”, “Ser/Thr 07” for “Tyr 02”, “1:45000” for “1:128”

[5] = target: RET (Homo sapiens, UniProt P07949); assay: Z'-LYTE SelectScreen biochemical kinase assay RET
Description: as §2, §3, §4, §5, §6, §7, §8, §9
as §10, with “2×RET/Tyr” for “2×LYN B/Tyr”, “0.49-3.64” for “0.85-14.8”, “RET” for “LYN B”

[6] = H4 neuroglioma cells expressing human APP695, 22 hours incubation, Table 4a
[7] = 10 μmolar compound concentration, ATP at Km app, read-out: LYN B inhibition
[8] = read-out: % Inhibition mean LYN B
[9] = 10 μmolar compound concentration, ATP at Km app, read-out: MAP4K4 (HGK) inhibition
[10] = read-out: % Inhibition mean MAP4K4 (HGK)
[11] = 10 μmolar compound concentration, ATP at Km app, read-out: RET inhibition
[12] = read-out: % Inhibition mean RET

Chain of LYN B (P07948 1-491 isoform P07948-2): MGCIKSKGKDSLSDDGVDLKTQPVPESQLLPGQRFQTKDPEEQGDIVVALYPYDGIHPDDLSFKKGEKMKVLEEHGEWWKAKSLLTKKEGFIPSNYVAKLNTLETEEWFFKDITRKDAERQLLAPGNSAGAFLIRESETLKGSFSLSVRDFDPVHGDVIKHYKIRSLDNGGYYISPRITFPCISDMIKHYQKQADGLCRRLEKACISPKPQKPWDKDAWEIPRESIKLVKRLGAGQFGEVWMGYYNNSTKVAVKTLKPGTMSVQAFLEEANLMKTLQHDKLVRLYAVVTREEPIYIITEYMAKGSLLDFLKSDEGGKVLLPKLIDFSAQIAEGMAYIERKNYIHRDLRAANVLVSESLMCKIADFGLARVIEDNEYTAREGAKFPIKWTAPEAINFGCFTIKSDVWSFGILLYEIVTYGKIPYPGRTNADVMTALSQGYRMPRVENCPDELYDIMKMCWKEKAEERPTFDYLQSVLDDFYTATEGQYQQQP
Chain of MAP4K4 (HGK) (O95819 whole entry): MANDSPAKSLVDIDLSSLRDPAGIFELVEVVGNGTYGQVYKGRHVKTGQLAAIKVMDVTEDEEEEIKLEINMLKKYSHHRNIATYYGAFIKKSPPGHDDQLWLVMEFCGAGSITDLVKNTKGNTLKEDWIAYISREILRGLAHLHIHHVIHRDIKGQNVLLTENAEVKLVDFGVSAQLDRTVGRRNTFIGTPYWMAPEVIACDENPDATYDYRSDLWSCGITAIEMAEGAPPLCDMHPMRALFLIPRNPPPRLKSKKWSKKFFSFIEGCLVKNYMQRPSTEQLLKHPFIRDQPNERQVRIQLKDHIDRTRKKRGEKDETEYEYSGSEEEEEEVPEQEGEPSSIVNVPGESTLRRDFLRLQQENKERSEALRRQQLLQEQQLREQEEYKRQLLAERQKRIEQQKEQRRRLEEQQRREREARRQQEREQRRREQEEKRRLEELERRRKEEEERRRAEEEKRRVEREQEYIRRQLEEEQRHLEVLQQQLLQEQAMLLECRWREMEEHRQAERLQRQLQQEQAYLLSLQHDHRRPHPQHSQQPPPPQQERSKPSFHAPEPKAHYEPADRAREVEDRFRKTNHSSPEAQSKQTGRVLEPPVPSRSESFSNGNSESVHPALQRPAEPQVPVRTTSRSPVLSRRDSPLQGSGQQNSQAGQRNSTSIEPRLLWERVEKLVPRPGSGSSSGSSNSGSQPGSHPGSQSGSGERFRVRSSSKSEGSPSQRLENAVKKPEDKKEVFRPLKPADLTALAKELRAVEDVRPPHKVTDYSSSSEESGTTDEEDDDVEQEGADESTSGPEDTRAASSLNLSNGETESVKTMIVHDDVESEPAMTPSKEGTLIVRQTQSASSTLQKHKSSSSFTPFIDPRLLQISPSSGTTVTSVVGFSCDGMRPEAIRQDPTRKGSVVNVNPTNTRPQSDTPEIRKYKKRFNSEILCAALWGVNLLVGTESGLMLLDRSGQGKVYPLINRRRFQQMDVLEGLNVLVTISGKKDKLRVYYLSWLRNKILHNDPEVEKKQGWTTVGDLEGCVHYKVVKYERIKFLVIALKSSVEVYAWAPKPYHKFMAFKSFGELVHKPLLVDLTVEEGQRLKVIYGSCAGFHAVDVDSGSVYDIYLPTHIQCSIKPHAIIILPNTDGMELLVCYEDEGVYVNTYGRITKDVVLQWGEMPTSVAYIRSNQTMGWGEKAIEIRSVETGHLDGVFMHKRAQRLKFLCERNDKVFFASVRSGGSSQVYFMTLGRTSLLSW
Chain of RET (P07949 29-1114): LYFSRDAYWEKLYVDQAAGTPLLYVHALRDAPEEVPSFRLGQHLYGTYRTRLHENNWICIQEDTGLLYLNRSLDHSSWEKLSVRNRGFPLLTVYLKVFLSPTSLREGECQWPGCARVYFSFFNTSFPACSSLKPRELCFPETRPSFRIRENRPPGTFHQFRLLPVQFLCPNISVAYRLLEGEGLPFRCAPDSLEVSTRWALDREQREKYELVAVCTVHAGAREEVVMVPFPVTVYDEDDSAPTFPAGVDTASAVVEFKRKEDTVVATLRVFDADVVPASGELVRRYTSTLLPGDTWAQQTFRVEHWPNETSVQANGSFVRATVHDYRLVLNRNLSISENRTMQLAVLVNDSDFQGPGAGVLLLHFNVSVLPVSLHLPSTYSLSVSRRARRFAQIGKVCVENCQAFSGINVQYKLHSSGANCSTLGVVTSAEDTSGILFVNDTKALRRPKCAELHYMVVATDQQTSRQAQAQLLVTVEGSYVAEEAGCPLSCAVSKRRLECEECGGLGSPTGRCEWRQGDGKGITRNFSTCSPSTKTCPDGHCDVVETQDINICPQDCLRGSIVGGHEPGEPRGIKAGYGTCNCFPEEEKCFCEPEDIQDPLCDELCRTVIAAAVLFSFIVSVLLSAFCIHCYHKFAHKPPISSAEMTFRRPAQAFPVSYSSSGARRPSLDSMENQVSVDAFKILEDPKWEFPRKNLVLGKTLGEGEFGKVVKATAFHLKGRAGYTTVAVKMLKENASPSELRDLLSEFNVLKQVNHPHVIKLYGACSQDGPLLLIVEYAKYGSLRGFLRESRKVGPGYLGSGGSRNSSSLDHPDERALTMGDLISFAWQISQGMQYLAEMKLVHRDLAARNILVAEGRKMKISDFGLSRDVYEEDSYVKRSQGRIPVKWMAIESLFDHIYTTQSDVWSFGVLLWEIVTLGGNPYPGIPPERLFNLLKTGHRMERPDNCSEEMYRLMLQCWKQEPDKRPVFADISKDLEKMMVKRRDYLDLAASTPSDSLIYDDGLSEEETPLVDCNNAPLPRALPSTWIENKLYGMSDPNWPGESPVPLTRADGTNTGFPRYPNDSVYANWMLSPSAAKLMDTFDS

SMILES | IC50 [1, 6] | inhibition at 10 µM [3, 7] | inhibition at 10 µM [3, 8] | inhibition at 10 µM [4, 9] | inhibition at 10 µM [4, 10] | inhibition at 10 µM [5, 11] | inhibition at 10 µM [5, 12] | IC50 ([1]; Homo sapiens, H4 neuroglioma cells, same assay as table 4a, prior art compounds, Table 4b) | inhibition at 10 µM ([3]; read-out: % Inhibition mean) | inhibition at 10 µM ([4]; read-out: % Inhibition mean) | inhibition at 10 µM ([5]; read-out: % Inhibition mean) | Ratio AβTotal IC50/Aβ42 IC50 ([2]; Table 4a) | modulation of γ-secretase (in words) ([1]; tables 4a/4b) | Ratio AβTotal IC50/Aβ42 IC50 ([2]; prior art compounds, Table 4b)
CCCn1ncc2c1CCC(Nc1nc3c(-c4ccc(F)cc4C)cccn3n1)C2 (stereo not shown) [Example 43, [8-(4-fluoro-2-methyl-phenyl)-[1,2,4]triazolo[1,5-a]pyridine-2-yl]-(1-propyl-4,5,6,7-tetrahydro-1H-indazol-5-yl)-amine] | 0.06 µM | < 40% | 22% | 40 to 80% | 40% | < 40% | 26% |  |  |  |  | 48 |  | 
CCCCCn1ncc2c1CCC(Nc1nc3c(-c4ccc(F)cc4C)cccn3n1)C2 (stereo not shown) [Example 47, [8-(4-fluoro-2-methyl-phenyl)-[1,2,4]triazolo[1,5-a]pyridine-2-yl]-(1-pentyl-4,5,6,7-tetrahydro-1H-indazol-5-yl)-amine] | > 30 µM | < 40% | 21% | < 40% | 32% | < 40% | 23% |  |  |  |  | 1 |  | 
Cc1cc(F)ccc1-c1cccn2nc(NC3CCc4c(cnn4C)C3)nc12 (stereo not shown) [Example 10, [8-(4-fluoro-2-methyl-phenyl)-[1,2,4]triazolo[1,5-a]pyridine-2-yl]-(1-methyl-4,5,6,7-tetrahydro-1H-indazol-5-yl)-amine] | 0.38 µM | < 40% | 17% | < 40% | 37% | < 40% | 18% |  |  |  |  | 27 |  | 
CCn1ncc2c1CCC(Nc1nc3c(-c4ccc(OC)nc4)cccn3n1)C2 (stereo not shown) [Example 71, (1-Ethyl-4,5,6,7-tetrahydro-1H-indazol-5-yl)-[8-(6-methoxy-pyridin-3-yl)-[1,2,4]triazolo[1,5-a]pyridine-2-yl]-amine] | 0.09 µM | < 40% | 24% | < 40% | 16% | < 40% | 30% |  |  |  |  | 332 |  | 
CCn1ncc2c1CC[C@@H](Nc1nc3c(-c4ccc(F)cc4C)cccn3n1)C2 [Example R-42, (R)-(1-Ethyl-4,5,6,7-tetrahydro-1H-indazol-5-yl)-[8-(4-fluoro-2-methyl-phenyl)-[1,2,4]triazolo[1,5-a]pyridine-2-yl]-amine] | 0.04 µM | < 40% | 26% | 40 to 80% | 56% | < 40% | 23% |  |  |  |  |  |  | 
CCn1ncc2c1CCC(Nc1nc3c(-c4ccccc4C)cccn3n1)C2 (stereo not shown) [Example 56, (1-Ethyl-4,5,6,7-tetrahydro-1H-indazol-5-yl)-[8-(2-methyl-phenyl)-[1,2,4]triazolo[1,5-a]pyridine-2-yl]-amine] | 0.16 µM | < 40% | 19% | 40 to 80% | 48% | < 40% | 27% |  |  |  |  | 49 |  | 

Further lines, with some results ahead:

IC50 [1, 6] | inhibition at 10 µM [3, 7] | inhibition at 10 µM [3, 8] | inhibition at 10 µM [4, 9] | inhibition at 10 µM [4, 10] | inhibition at 10 µM [5, 11] | inhibition at 10 µM [5, 12] | IC50 ([1]; Homo sapiens, H4 neuroglioma cells, same assay as table 4a, prior art compounds, Table 4b) | inhibition at 10 µM ([3]; read-out: % Inhibition mean) | inhibition at 10 µM ([4]; read-out: % Inhibition mean) | inhibition at 10 µM ([5]; read-out: % Inhibition mean) | SMILES | Ratio AβTotal IC50/Aβ42 IC50 ([2]; Table 4a) | modulation of γ-secretase (in words) ([1]; tables 4a/4b) | Ratio AβTotal IC50/Aβ42 IC50 ([2]; prior art compounds, Table 4b)
0.04 µM | < 40% | 22% | 40 to 80% | 57% | < 40% | 29% |  |  |  |  | CCn1ncc2c1CCC(Nc1nc3c(-c4cccc(Cl)c4)cccn3n1)C2 (stereo not shown) [Example 59, [8-(3-Chloro-phenyl)-[1,2,4]triazolo[1,5-a]pyridine-2-yl]-(1-ethyl-4,5,6,7-tetrahydro-1H-indazol-5-yl)-amine] | 49 |  | 
1.26 µM | < 40% | 18% | < 40% | 6% | < 40% | 39% |  |  |  |  | Cc1cc(F)ccc1-c1cccn2nc(Nc3ccc4c(cnn4C)c3)nc12 [Example 9, [8-(4-fluoro-2-methyl-phenyl)-[1,2,4]triazolo[1,5-a]pyridine-2-yl]-(1-methyl-1H-indazol-5-yl)-amine] | 3 |  | 
 | > 80% |  | > 80% |  | > 80% |  | 7 µM | 89% | 95% | 94% | Fc1cccc(-c2cccn3nc(Nc4ccc5[nH]cnc5c4)nc23)c1 [Cpd. 293 in WO09155551, reference compound] |  | do not show any modulation | 1
> 30 µM | < 40% | 20% | 40 to 80% | 45% | < 40% | 18% |  |  |  |  | Cc1cc(F)ccc1-c1cccn2nc(NC3CCc4cnn(C)c4C3)nc12 (stereo not shown) [Example 40, [8-(4-Fluoro-2-methyl-phenyl)-[1,2,4]triazolo[1,5-a]pyridine-2-yl]-(1-methyl-4,5,6,7-tetrahydro-1H-indazol-6-yl)-amine] | 1 |  | 
0.18 µM | < 40% | 27% | 40 to 80% | 51% | < 40% | 21% |  |  |  |  | CCn1ncc2c1CCC(Nc1nc3c(-c4ccc(F)cc4)cccn3n1)C2 (stereo not shown) [Example 55, (1-Ethyl-4,5,6,7-tetrahydro-1H-indazol-5-yl)-[8-(4-fluoro-phenyl)-[1,2,4]triazolo[1,5-a]pyridine-2-yl]-amine] | 120 |  | 

Reference: US11339161B2, “Triazolo pyridines as modulators of gamma-secretase” (Boehringer Ingelheim International GmbH, priority 2017, dated 2022)
